SMILES strings stand for the structures.

Experiment [1] deals with T1, Nuclear receptor subfamily 2 group C member 1 (Homo sapiens) (UniProt P13056).
T1 sequence (whole entry): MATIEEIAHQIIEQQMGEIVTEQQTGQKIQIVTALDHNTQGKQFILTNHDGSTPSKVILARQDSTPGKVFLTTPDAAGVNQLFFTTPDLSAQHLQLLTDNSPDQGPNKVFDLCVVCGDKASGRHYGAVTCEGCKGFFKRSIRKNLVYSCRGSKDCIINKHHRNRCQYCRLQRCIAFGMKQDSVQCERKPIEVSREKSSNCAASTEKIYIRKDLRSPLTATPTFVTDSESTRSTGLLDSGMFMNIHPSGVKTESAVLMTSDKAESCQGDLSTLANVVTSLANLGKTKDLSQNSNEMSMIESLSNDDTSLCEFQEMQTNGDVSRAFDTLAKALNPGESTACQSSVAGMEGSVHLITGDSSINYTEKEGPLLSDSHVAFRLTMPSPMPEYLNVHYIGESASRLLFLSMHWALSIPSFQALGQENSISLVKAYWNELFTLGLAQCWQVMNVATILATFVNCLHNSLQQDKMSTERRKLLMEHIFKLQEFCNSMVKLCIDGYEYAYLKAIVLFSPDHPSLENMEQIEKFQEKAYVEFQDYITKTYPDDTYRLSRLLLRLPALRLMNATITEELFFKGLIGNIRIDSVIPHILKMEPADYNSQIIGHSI
The experiment can be described thus: Selectivity interaction (Reporter gene assay) EUB0001168a NR2C1. Details: recommended concentration 1 uM.

For experiment [2], the target named is Nuclear receptor subfamily 2 group E member 1 (Homo sapiens) (UniProt Q9Y466). In words: Selectivity interaction (Reporter gene assay) EUB0001168a NR2E1. Details: recommended concentration 1 uM.
In experiment [3] the target is T2, Oxysterols receptor LXR-beta (Homo sapiens) (UniProt P55055).
T2 sequence (whole entry): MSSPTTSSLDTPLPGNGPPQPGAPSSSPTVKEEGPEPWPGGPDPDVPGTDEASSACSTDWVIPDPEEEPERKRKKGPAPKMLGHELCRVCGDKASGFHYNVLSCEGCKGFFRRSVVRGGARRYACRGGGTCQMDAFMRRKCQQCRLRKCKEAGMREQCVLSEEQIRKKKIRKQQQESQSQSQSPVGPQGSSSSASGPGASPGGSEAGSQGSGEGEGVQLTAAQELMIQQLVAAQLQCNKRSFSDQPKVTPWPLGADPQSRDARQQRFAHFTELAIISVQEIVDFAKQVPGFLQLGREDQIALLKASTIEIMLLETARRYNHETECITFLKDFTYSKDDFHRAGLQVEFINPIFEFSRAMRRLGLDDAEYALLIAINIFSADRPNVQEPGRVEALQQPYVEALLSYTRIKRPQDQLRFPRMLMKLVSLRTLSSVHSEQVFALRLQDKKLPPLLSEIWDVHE
The experiment can be described thus: Selectivity interaction (Reporter gene assay) EUB0001168a NR1H2. The arrangement: recommended concentration 1 uM. To be noted: screened at recom. conc., Selectivity number of off-targets 1.0, Selectivity number of targets 19.0, Source Knowledge inhouse.

For experiment [4], the target named is T3, Hepatocyte nuclear factor 4-alpha (Homo sapiens) (UniProt P41235).
T3 sequence (whole entry): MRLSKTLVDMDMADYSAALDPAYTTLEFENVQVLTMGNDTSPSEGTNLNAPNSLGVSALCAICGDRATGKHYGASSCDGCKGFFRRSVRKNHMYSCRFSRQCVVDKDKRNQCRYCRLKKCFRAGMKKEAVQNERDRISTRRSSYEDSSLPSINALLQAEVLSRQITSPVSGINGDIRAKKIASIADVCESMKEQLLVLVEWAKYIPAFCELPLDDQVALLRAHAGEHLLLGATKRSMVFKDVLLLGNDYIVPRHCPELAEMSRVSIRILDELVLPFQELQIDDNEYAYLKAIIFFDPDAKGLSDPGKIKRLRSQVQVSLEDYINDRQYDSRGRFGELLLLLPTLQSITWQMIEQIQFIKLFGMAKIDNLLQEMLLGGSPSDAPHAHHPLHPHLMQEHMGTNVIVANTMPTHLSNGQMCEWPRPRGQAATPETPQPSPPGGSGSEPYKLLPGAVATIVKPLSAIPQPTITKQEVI
The experiment can be described thus: Selectivity interaction (Reporter gene assay) EUB0001168a HNF4A. The arrangement: recommended concentration 1 uM.

The target of experiment [5] is T4, Retinoic acid receptor RXR-alpha (Homo sapiens) (UniProt P19793).
T4 sequence (whole entry): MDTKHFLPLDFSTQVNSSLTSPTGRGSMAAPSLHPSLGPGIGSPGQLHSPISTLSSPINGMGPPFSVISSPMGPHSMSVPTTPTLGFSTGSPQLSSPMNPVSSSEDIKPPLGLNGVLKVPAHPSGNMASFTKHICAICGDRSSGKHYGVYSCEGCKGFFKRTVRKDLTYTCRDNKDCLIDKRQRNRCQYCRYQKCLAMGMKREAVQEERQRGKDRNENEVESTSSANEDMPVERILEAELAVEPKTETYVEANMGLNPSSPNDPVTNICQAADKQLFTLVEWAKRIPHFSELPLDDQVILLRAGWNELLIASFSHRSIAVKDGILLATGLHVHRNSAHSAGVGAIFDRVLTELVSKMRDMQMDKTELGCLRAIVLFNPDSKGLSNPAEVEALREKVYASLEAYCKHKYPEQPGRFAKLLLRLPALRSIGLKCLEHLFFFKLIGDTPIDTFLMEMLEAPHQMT
In words: Selectivity interaction (Reporter gene assay) EUB0001168a RXRA. The arrangement: recommended concentration 1 uM. To be noted: reference bexarotene 1 uM, Selectivity number of off-targets 0.0, Selectivity number of targets 1.0, Source Knowledge inhouse.

The target in experiment [6] is Nuclear receptor subfamily 4immunitygroup A member 1 (Homo sapiens) (UniProt P22736). In words: Selectivity interaction (Reporter gene assay) EUB0001168a NR4A1. The arrangement: recommended concentration 1 uM.
Experiment [7] concerns the target Steroidogenic factor 1 (Homo sapiens) (UniProt Q13285). The experiment can be described thus: Selectivity interaction (Reporter gene assay) EUB0001168a NR5A1. The arrangement: recommended concentration 1 uM.
The target in experiment [8] is T5, Alpha trans-inducing protein (Human alphaherpesvirus 1) (UniProt A0A5J6DW59). The experiment can be described thus: Selectivity interaction (Reporter gene assay) EUB0001168a UL48. The arrangement: recommended concentration 1 uM.
Experiment [9] concerns the target T3, Hepatocyte nuclear factor 4-alpha (Homo sapiens). The experiment can be described thus: Selectivity interaction (Reporter gene assay) EUB0001167a HNF4A. Details: recommended concentration 1 uM.
Experiment [10] addresses T4, Retinoic acid receptor RXR-alpha (Homo sapiens). In words: Selectivity interaction (Reporter gene assay) EUB0001167a RXRA. The arrangement: recommended concentration 1 uM. To be noted: reference bexarotene 1 uM, Selectivity number of off-targets 0.0, Selectivity number of targets 1.0, Source Knowledge inhouse.
The target of experiment [11] is Steroidogenic factor 1 (Homo sapiens) (UniProt Q13285). The experiment can be described thus: Selectivity interaction (Reporter gene assay) EUB0001167a NR5A1. The arrangement: recommended concentration 1 uM.
In experiment [12] the target is T1, Nuclear receptor subfamily 2 group C member 1 (Homo sapiens). The experiment can be described thus: Selectivity interaction (Reporter gene assay) EUB0001167a NR2C1. The arrangement: recommended concentration 1 uM.
Experiment [13] addresses T5, Alpha trans-inducing protein (Human alphaherpesvirus 1). The experiment can be described thus: Selectivity interaction (Reporter gene assay) EUB0001167a UL48. The arrangement: recommended concentration 1 uM.
Experiment [14] addresses Nuclear receptor subfamily 2 group E member 1 (Homo sapiens) (UniProt Q9Y466). In words: Selectivity interaction (Reporter gene assay) EUB0001167a NR2E1. Details: recommended concentration 1 uM.
For experiment [15], the target named is Nuclear receptor subfamily 4immunitygroup A member 1 (Homo sapiens) (UniProt P22736). In words: Selectivity interaction (Reporter gene assay) EUB0001167a NR4A1. Details: recommended concentration 1 uM.
Experiment [16] deals with Steroidogenic factor 1 (Homo sapiens) (UniProt Q13285). In words: Selectivity interaction (Reporter gene assay) EUB0001163a NR5A1. The arrangement: recommended concentration 10 uM.
The target in experiment [17] is T5, Alpha trans-inducing protein (Human alphaherpesvirus 1). In words: Selectivity interaction (Reporter gene assay) EUB0001163a UL48. Details: recommended concentration 10 uM.
Experiment [18] has as its target Nuclear receptor subfamily 4immunitygroup A member 1 (Homo sapiens) (UniProt P22736). In words: Selectivity interaction (Reporter gene assay) EUB0001163a NR4A1. The arrangement: recommended concentration 10 uM.
Experiment [19] deals with T3, Hepatocyte nuclear factor 4-alpha (Homo sapiens). In words: Selectivity interaction (Reporter gene assay) EUB0001163a HNF4A. The arrangement: recommended concentration 10 uM.
Experiment [20] addresses Nuclear receptor subfamily 2 group E member 1 (Homo sapiens) (UniProt Q9Y466). The experiment can be described thus: Selectivity interaction (Reporter gene assay) EUB0001163a NR2E1. Details: recommended concentration 10 uM.
Experiment [21] deals with T1, Nuclear receptor subfamily 2 group C member 1 (Homo sapiens). In words: Selectivity interaction (Reporter gene assay) EUB0001163a NR2C1. The arrangement: recommended concentration 10 uM.
Experiment [22] has as its target T4, Retinoic acid receptor RXR-alpha (Homo sapiens). The experiment can be described thus: Selectivity interaction (Reporter gene assay) EUB0001163a RXRA. The arrangement: recommended concentration 10 uM. To be noted: reference bexarotene 1 uM, Selectivity number of off-targets 0.0, Selectivity number of targets 1.0, Source Knowledge inhouse.
Experiment [23] concerns the target T3, Hepatocyte nuclear factor 4-alpha (Homo sapiens).
The target in experiment [24] is T1, Nuclear receptor subfamily 2 group C member 1 (Homo sapiens). To be noted: screened at recom. conc., Selectivity number of off-targets 1.0, Selectivity number of targets 5.0, Source Knowledge inhouse.
In experiment [25] the target is Nuclear receptor ROR-alpha (Homo sapiens) (UniProt P35398). To be noted: screened at recom. conc., Selectivity number of off-targets 1.0, Selectivity number of targets 19.0, Source Knowledge inhouse.
The target in experiment [26] is T5, Alpha trans-inducing protein (Human alphaherpesvirus 1). In words: Selectivity interaction (Reporter gene assay) EUB0001161a UL48. Details: recommended concentration 10 uM.
For experiment [27], the target named is Steroidogenic factor 1 (Homo sapiens) (UniProt Q13285). The experiment can be described thus: Selectivity interaction (Reporter gene assay) EUB0001161a NR5A1. The arrangement: recommended concentration 10 uM.
Experiment [28] addresses Nuclear receptor subfamily 2 group E member 1 (Homo sapiens) (UniProt Q9Y466).
In experiment [29] the target is Nuclear receptor subfamily 4immunitygroup A member 1 (Homo sapiens) (UniProt P22736).
For experiment [30], the target named is T5, Alpha trans-inducing protein (Human alphaherpesvirus 1). The experiment can be described thus: Selectivity interaction (Reporter gene assay) EUB0001164a UL48. Details: recommended concentration 1 uM.
Experiment [31] has as its target Nuclear receptor subfamily 4immunitygroup A member 1 (Homo sapiens) (UniProt P22736). In words: Selectivity interaction (Reporter gene assay) EUB0001164a NR4A1. Details: recommended concentration 1 uM.
Experiment [32] addresses Steroidogenic factor 1 (Homo sapiens) (UniProt Q13285). The experiment can be described thus: Selectivity interaction (Reporter gene assay) EUB0001164a NR5A1. The arrangement: recommended concentration 1 uM.
For experiment [33], the target named is T4, Retinoic acid receptor RXR-alpha (Homo sapiens). In words: Selectivity interaction (Reporter gene assay) EUB0001164a RXRA. Details: recommended concentration 1 uM. The settings on record: reference bexarotene 1 uM, Selectivity number of off-targets 0.0, Selectivity number of targets 1.0, Source Knowledge inhouse.
Experiment [34] addresses T3, Hepatocyte nuclear factor 4-alpha (Homo sapiens). In words: Selectivity interaction (Reporter gene assay) EUB0001164a HNF4A. Details: recommended concentration 1 uM.
Experiment [35] concerns the target T1, Nuclear receptor subfamily 2 group C member 1 (Homo sapiens). The experiment can be described thus: Selectivity interaction (Reporter gene assay) EUB0001164a NR2C1. The arrangement: recommended concentration 1 uM.
In experiment [36] the target is Nuclear receptor subfamily 2 group E member 1 (Homo sapiens) (UniProt Q9Y466). In words: Selectivity interaction (Reporter gene assay) EUB0001164a NR2E1. The arrangement: recommended concentration 1 uM.

Sequence of Nuclear receptor subfamily 2 group E member 1 (Homo sapiens) (Q9Y466 whole entry): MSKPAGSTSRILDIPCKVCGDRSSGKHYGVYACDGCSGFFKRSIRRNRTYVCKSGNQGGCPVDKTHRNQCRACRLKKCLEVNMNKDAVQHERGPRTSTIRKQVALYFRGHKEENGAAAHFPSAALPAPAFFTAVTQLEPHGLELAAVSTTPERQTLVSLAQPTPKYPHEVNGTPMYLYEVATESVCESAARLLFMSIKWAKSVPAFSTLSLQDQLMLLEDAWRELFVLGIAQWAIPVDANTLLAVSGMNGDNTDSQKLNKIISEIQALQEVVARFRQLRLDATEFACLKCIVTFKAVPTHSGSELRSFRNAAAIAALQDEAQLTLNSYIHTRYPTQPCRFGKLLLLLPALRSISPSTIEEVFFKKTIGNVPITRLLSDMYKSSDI
T5 sequence (A0A5J6DW59 as listed by the source): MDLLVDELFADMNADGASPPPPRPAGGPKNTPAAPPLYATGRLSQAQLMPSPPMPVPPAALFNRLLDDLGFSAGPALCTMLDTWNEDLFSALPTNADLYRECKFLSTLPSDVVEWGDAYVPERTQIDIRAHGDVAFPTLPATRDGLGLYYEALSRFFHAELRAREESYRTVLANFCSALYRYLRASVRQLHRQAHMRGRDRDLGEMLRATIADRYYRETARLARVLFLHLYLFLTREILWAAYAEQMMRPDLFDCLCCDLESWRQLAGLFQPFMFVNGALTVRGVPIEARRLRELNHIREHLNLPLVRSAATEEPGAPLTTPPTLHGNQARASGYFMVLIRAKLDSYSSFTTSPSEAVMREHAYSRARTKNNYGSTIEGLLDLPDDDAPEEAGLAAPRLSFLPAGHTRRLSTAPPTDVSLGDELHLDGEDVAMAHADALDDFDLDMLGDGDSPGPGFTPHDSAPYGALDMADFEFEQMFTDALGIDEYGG
Sequence of Nuclear receptor subfamily 4immunitygroup A member 1 (Homo sapiens) (P22736 whole entry): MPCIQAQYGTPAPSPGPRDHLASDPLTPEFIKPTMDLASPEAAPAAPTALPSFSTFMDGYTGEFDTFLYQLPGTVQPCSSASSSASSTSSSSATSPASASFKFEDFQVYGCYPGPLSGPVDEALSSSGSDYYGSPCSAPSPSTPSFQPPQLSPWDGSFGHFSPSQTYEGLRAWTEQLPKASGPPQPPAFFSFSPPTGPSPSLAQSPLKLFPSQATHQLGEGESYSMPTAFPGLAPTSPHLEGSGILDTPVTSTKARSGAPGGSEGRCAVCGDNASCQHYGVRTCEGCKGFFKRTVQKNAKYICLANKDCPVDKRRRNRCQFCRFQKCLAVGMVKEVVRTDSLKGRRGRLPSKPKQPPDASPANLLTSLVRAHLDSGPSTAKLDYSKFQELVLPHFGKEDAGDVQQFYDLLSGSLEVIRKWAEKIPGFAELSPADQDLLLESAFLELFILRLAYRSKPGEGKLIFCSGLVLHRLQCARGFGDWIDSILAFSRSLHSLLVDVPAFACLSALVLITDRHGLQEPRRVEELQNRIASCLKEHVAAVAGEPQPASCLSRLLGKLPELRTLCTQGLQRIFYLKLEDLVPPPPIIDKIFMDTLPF
Sequence of Steroidogenic factor 1 (Homo sapiens) (Q13285 whole entry): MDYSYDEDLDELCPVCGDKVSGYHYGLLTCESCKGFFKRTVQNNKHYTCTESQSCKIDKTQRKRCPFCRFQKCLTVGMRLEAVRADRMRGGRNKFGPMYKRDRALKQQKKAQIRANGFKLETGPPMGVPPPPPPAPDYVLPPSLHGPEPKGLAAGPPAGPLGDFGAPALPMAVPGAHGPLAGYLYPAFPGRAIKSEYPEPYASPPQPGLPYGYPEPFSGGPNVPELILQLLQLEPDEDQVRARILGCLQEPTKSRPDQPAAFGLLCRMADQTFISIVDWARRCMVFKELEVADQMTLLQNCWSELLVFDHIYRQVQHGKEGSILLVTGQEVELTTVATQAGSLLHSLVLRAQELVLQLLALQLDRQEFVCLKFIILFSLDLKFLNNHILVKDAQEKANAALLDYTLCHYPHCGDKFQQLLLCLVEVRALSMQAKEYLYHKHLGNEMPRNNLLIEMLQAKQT
Sequence of Nuclear receptor ROR-alpha (Homo sapiens) (P35398 whole entry): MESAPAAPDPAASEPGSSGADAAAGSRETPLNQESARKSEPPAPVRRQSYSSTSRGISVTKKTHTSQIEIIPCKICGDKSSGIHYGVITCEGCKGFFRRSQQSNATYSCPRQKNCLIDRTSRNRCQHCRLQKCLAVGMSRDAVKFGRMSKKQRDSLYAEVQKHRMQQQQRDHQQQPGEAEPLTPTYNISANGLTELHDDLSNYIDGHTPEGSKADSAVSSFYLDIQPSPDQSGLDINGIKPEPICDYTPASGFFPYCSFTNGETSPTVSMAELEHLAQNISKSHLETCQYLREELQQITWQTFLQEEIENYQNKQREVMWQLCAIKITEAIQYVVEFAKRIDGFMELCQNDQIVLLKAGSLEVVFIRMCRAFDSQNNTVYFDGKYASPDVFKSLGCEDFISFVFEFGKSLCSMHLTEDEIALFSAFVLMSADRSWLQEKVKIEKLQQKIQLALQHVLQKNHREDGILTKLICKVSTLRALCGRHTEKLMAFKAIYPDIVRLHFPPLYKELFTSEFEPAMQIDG

For the compound `O=C(O)c1ccnc(N2CC(O)(c3ccc(OCc4c(-c5c(Cl)cccc5Cl)noc4C4CC4)cc3Cl)C2)c1`, the Fold activation came to 1.18 in [1]; 1.12 in experiment [2]; 5.01 in [3]; 1.13 in experiment [4]; 1.01 in experiment [6]; 1.07 in [7]. In addition, the Relative activation in experiment [5] was determined as 0.698%. The same compound came in with a P-value in experiment [8] of 0.0011.

For the compound `CC(=O)Oc1ccc2c(c1)[C@@]1(C)CCC[C@](C)(C(=O)OC(=O)[C@@]3(C)CCC[C@]4(C)c5cc(OC(C)=O)ccc5CC[C@@H]34)[C@@H]1CC2`, the Remaining activity amounted to 0.928 in [9] and 0.86 in [11]. This compound displayed a Relative activation in experiment [10] of 0.795%. For the same compound, the Fold activation amounted to 1.13 in [12], 1.06 in [14] and 1.11 in experiment [15]. In experiment [13], the P-value amounted to 0.00117.

On to `CCOC(=O)Nc1ccc2c(c1)N(C(=O)CN(CC)CC)c1ccccc1CC2`, for which the Fold activation in [16] stood at 1.16; in experiment [19], 1.08; in [21], 1.37. In [17], the P-value was found to be 0.011. The Remaining activity in [18] was 1.21; in experiment [20] it was 1.38. Further, the Relative activation in experiment [22] was 0.623%.

For `COc1cc(O)c(C(CC(=O)N2C[C@H](C)C[C@H](C)C2)c2ccc3c(c2)OCO3)c(OC)c1` (stereo partly specified), the Remaining activity in [23] is 0.972; in experiment [24], 0.425; in experiment [25] it was 0.851; in [27], 0.942; in experiment [28] it was 0.509; in [29], 0.899. The compound also yielded a P-value in experiment [26] of 0.000227.

Take `CCOC(=O)c1ccc(CN(Cc2ccc(-c3cccc(S(C)(=O)=O)c3)cc2)S(=O)(=O)c2c(C)cc(C)cc2C)o1`: in [30], the P-value was 0.0222. Also, the Fold activation came out at 1.26 in experiment [31], 1.07 in [32], 1.29 in experiment [34] and 1.02 in experiment [35]. This compound came in with a Relative activation in experiment [33] of 0.903%. The compound further returned a Remaining activity in [36] of 0.776.

The values are drawn from ChEMBL document CHEMBL5715260, “Selectivity Literature for EUbOPEN Chemogenomic Library” (2024).
